Where “and” joins values, the source holds several entries; their conditions need not be identical. Identical values can stand only once. Entries after “also recorded” stand apart in the source; their conditions may differ.
Columns and labels:
guinea pig skin = experiment: In vivo fibrosis assay, intradermal injection into guinea pig skin; parameters: species or system Guinea pigs (Hartley strain); details: for fibrogenic response / fibrosis in guinea pig skin (in words): intradermal injection of peptide in collagen carrier; for Histologic Score (degree of fibrosis), Peptide site: 400 μg peptide in 1.7 mg type I collagen carrier, 100 μl intradermal, 9 days, one value per guinea pig, scale 0 to 4
Procedure: The ability of the peptides to induce cellular chemotaxis and a fibrogenic response (fibroblast proliferation and collagen synthesis) in vivo may be measured by intradermal injection of the peptides into the skin of guinea pigs. Generally, the in vivo, guinea pig skin studies were carried out according to the following protocol:
8 mg/cc stocks of the peptides according to the present invention in Dulbecco's PBS were sterile filtered using a 0.45μ syringe filter. PBS plus ZYDERM™ collagen (Collagen Corp., Inc.) was used as a control. Peptide stocks were diluted 1:1 with ZYDERM™ collagen (35 mg/ml), resulting in a 4 mg/ml peptide-collagen suspension. Peptide-collagen suspensions were kept on ice at all times and drawn up in 1 cc syringes fitted with 27 or 28 gauge needles.
(§1) Guinea pigs (Hartley strain, female, weanlings) were shaved on the left and right sides of their abdomens. 100 μl of a suspension of peptide-collagen was injected intradermally in one site on each side of each guinea pig. Each site was circled with an indelible ink pen. Pigs were remarked after 3 days. At appropriate times after injection, guinea pigs were sacrificed via CO2 narcosis. Animals were shaved and a depilatory was used to remove remaining stubble. Injection sites were excised using a skin biopsy punch (6 mm). Tissue was placed in vials with 10% neutral buffered formalin. Sections were processed for staining with H+E and Masson's Trichrome.
8 mg/cc stocks of TGF-β1 peptides in Dulbecco's PBS were sterile filtered using a 0.45μ syringe filter. PBS plus ZYDERM™ (Collagen Corp., Inc.) was used as a control. Peptide stocks were diluted 1:1 with ZYDERM™ collagen (35 mg/ml) resulting in a 4 mg/ml peptide-collagen suspension. Peptide-collagen suspensions were kept on ice at all times and drawn up in 1 cc syringes fitted with 27 or 28 gauge needles.
as §1, with “of” for “of a”, “peptide-collagenwas” for “peptide-collagen was”, “straining” for “staining”
In vivo fibrosis assays were performed. Guinea pigs were injected intradermally with 400 μg of either peptide VYYVGRK (SEQ ID NO. 1) or peptide PLPIVYYVGRKPKVE (SEQ ID NO. 6) in a 100 μl volume of saline containing type I bovine collagen carrier 1.7 mg (zyderm, Celtrex Corp. Palo Alto, Calif.). As a control, at a distant site on the same guinea pig, the collagen carrier plus saline was injected intradermally as a control. Nine days later, the animals were sacrificed, and the skin sectioned through the injection sites was processed for histology using Mason-Trichrome to stain collagen fibers. The degree of fibrosis was assessed at 400×magnification to determine degree of replacement of surrounding subcutaneous fat with newly synthesized collagen. FIG. 15 is a Mason-Trichrome, 400×[…] of 9 day post intradermal injection of guinea pig skin with 100 μl, 400 μg peptide PLPIVYYVGRKPKVE ([…]) in collagen carrier (1.7 mg). There is marked (score of 4) replacement of fat cells with newly synthesized collagen in the subcutaneous fatty layer. Fibroblasts are noted scattered throughout what was once subcutaneous fatty layer. FIG. 16 is a Mason-Trichrome 400×magnification of 9 days post intradermal injection of the same guinea pig as in […] at a distant site with saline and collagen carrier as a control. Note minimal (score of 1) replacement of fat cells with newly synthesized collagen. Few fibroblasts are visible in the subcutaneous fatty layer. […]

[1] = tested on: Human peripheral blood neutrophils; experiment: Neutrophil chemotaxis in modified Boyden chambers; assay type: cell-based; details: peptide in lower compartment of modified Boyden chamber
Description: Human peripheral blood neutrophils and monocytes, isolated from whole blood using standard techniques may also be used in the chemotaxis assays, in a manner similar to infant foreskin fibroblasts, to measure the chemotactic activity of the peptides towards inflammatory cells. Such cells may also be maintained in supplemented MEM as above, to which 5-10% FCS may be added. When using neutrophils and monocytes, instead of fibroblasts, the polycarbonate filters used in the modified Boyden chambers had pore sizes of 2 and 3 microns, respectively. As above, all assays were carried out in quadruplicate.

[2] = tested on: infant foreskin fibroblasts; experiment: Fibroblast chemotaxis in modified Boyden chambers (incl. checkerboard and deactivation studies); assay type: cell-based, human; details: for fibroblast chemotaxis / migration (in words): peptide in lower compartment of modified Boyden chamber; for Mean Fibroblasts per 20 OIF + SEM: Experiment 1, lower compartment: TGF-β1 50 pg/ml, peptide 368-374 1.4 × 10^-5 M, peptide 364-378 6.7 × 10^-7 M, fibronectin 20 μg/ml; for chemotactic response of fibroblasts to peptide with fibronectin in upper chamber (in words): unrelated chemoattractant fibronectin in the upper chamber
Procedure: Target cells used in in vitro chemotaxis assays were infant foreskin fibroblasts obtained by establishing monolayer cultures from explants of tissue. Cells were maintained in Eagle's minimum essential medium (MEM) supplemented with non-essential amino acids, antibiotics, 50 ug/ml ascorbic acid, and 9% fetal calf serum (FCS). Cells were passaged by trypsinization every 3-5 days.
Infant foreskin fibroblasts were harvested from monolayer culture by gentle trypsinization, washed twice in serum-free Eagles's MEM and adjusted to a final concentration of 250,000 cells/ml. The cell suspension (0.4 ml) was added to the upper compartments of blind well modified Boyden chemotaxis chambers. The peptides of the invention being assayed for chemotactic activity were solubilized in glycylglycine (0.015M) buffered NaCl (0.14M), pH 7.2, hereinafter referred to as GGBS, and diluted 50% with serum-free MEM. Test substances were added to the lower compartment of the chemotaxis chambers. Gelatin-treated polycarbonate filters (8 micron pore size) were interposed between the lowest compartment and the upper cell compartment. Loaded chambers were incubated at 37° C. in a humidified atmosphere containing 5% CO2 for 150 minutes. After incubation, the chambers were disassembled, the filters removed, stained with hematoxylin, and mounted on glass cover slips. Fibroblast chemotaxis was quantitated by counting the number of fibroblasts in 20 oil immersion fields (OIF) that migrated and adhered to the lower surface of each filter. Samples were tested in quadruplicate and results are expressed as mean number of fibroblasts per 20 OIF±standard error of the mean (SEM). Chemotaxis neutralization studies were performed by adding TGF-β1 or fibronectin to the upper cell compartment and testing for effects on fibroblast migration to the TGF-β peptides.
Zigmond-Hirsch checkerboard analysis (Zigmond & Hirsch, J. Exptl. Med. 137:387, 1972) was performed to determine whether the 7-mer peptide 368-374 (Val Tyr Tyr Val Gly Arg Lys) induced chemotaxis of fibroblasts, monocytes and neutrophils.
Deactivation studies were utilized to determine whether the peptides of the invention containing the 7-mer peptide amino acid sequence induced chemotaxis via cellular receptors and mechanisms utilized by intact TGF-β.

T-Cell = experiment: T-cell proliferation; assay type: cell-based; parameters: key: NE = No Effect; details: Table II summary
[3] = Media added to upper compartment
[4] = TGF-β1 (50 pg/ml) added to upper compartment

## 340-391: synthetic peptide corresponding to sequence 340-391 of TGF-β1; positive chemotactic control (VLALYNQHNPGASAAPCCVPQALEPLPIVYYVGRKPKVEQLSNMIVRSCKCS; printed: Val Leu Ala Leu Tyr Asn Gln His Asn Pro Gly Ala Ser Ala Ala Pro Cys Cys Val Pro Gln Ala Leu Glu Pro Leu Pro Ile Val Tyr Tyr Val Gly Arg Lys Pro Lys Val Glu Gln Leu Ser Asn Met Ile Val Arg Ser Cys Lys Cys Ser) [Peptide 340-391]
Guinea pig skin
  fibrogenic response / fibrosis in guinea pig skin (in words): induced a fibrinogenic response
[1]
  neutrophil chemotaxis / migration (in words): migrated in a dose dependent fashion
[2]
  fibroblast chemotaxis / migration (in words): migrated in a dose dependent fashion

## PLPIVYYVGRKPKVE [Peptide 364-378, 15-mer peptide 364-378 of TGF-β1]
Guinea pig skin
  Histologic Score (degree of fibrosis), Peptide site: 4 (4 equals 75 to 100% of fat cells replaced with collagen) and 3 (3 equals replacement of 50 to 75% of fat cells with collagen)
  fibrogenic response / fibrosis in guinea pig skin (in words): induced a fibrinogenic response
Guinea pig skin; listed as PLPIVYYVGRKPKVE
  fibrogenic response / fibrosis in guinea pig skin (in words): extensive collagen synthesis
T-Cell
  T-Cell Proliferation: NE
[1]
  neutrophil chemotaxis / migration (in words): induced migration of fibroblasts, monocytes and neutrophils in a dose dependent fashion
[2]; [3]
  Mean Fibroblasts per 20 OIF + SEM: 122 ± 8 Fibroblasts per 20 OIF
[2]; [4]
  Mean Fibroblasts per 20 OIF + SEM: 37 ± 5 Fibroblasts per 20 OIF
[2]
  fibroblast chemotaxis / migration (in words): induced migration of fibroblasts, monocytes and neutrophils in a dose dependent fashion
  chemotactic response of fibroblasts to peptide with fibronectin in upper chamber (in words): No such inhibition was seen

## VYYVGRK [Peptide 368-374, 7-mer corresponding to amino acids 368-374 of TGF-β1]
Guinea pig skin
  Histologic Score (degree of fibrosis), Peptide site: 1 (1 equals replacement of 10 to 25% of the fat cells with collagen)
  fibrogenic response / fibrosis in guinea pig skin (in words): did not induce
T-Cell
  T-Cell Proliferation: NE
[1]
  neutrophil chemotaxis / migration (in words): induced migration of fibroblasts, monocytes and neutrophils in a dose dependent fashion
[2]; [3]
  Mean Fibroblasts per 20 OIF + SEM: 75 ± 2 Fibroblasts per 20 OIF
[2]; [4]
  Mean Fibroblasts per 20 OIF + SEM: 23 ± 1 Fibroblasts per 20 OIF
[2]; checkerboard: upper compartment 0, lower compartment 1.4 × 10^-6 M
  Fibroblasts per 20 OIF (mean ± SEM): 38 ± 2 Fibroblasts per 20 OIF
[2]; checkerboard: upper compartment 0, lower compartment 7.0 × 10^-6 M
  Fibroblasts per 20 OIF (mean ± SEM): 58 ± 5 Fibroblasts per 20 OIF
[2]; checkerboard: upper compartment 0, lower compartment 7.0 × 10^-7 M
  Fibroblasts per 20 OIF (mean ± SEM): 20 ± 3 Fibroblasts per 20 OIF
[2]; checkerboard: upper compartment 1.4 × 10^-6 M, lower compartment 0
  Fibroblasts per 20 OIF (mean ± SEM): 9 ± 1 Fibroblasts per 20 OIF
[2]; checkerboard: upper compartment 1.4 × 10^-6 M, lower compartment 1.4 × 10^-6 M
  Fibroblasts per 20 OIF (mean ± SEM): 9 ± 1 Fibroblasts per 20 OIF
[2]; checkerboard: upper compartment 1.4 × 10^-6 M, lower compartment 7.0 × 10^-6 M
  Fibroblasts per 20 OIF (mean ± SEM): 24 ± 2 Fibroblasts per 20 OIF
[2]; checkerboard: upper compartment 1.4 × 10^-6 M, lower compartment 7.0 × 10^-7 M
  Fibroblasts per 20 OIF (mean ± SEM): 10 ± 1 Fibroblasts per 20 OIF
[2]; checkerboard: upper compartment 7.0 × 10^-6 M, lower compartment 0
  Fibroblasts per 20 OIF (mean ± SEM): 7 ± 1 Fibroblasts per 20 OIF
[2]; checkerboard: upper compartment 7.0 × 10^-6 M, lower compartment 1.4 × 10^-6 M
  Fibroblasts per 20 OIF (mean ± SEM): 8 ± 1 Fibroblasts per 20 OIF
[2]; checkerboard: upper compartment 7.0 × 10^-6 M, lower compartment 7.0 × 10^-6 M
  Fibroblasts per 20 OIF (mean ± SEM): 11 ± 1 Fibroblasts per 20 OIF
[2]; checkerboard: upper compartment 7.0 × 10^-6 M, lower compartment 7.0 × 10^-7 M
  Fibroblasts per 20 OIF (mean ± SEM): 7 ± 1 Fibroblasts per 20 OIF
[2]; checkerboard: upper compartment 7.0 × 10^-7 M, lower compartment 0
  Fibroblasts per 20 OIF (mean ± SEM): 8 ± 1 Fibroblasts per 20 OIF
[2]; checkerboard: upper compartment 7.0 × 10^-7 M, lower compartment 1.4 × 10^-6 M
  Fibroblasts per 20 OIF (mean ± SEM): 24 ± 2 Fibroblasts per 20 OIF
[2]; checkerboard: upper compartment 7.0 × 10^-7 M, lower compartment 7.0 × 10^-6 M
  Fibroblasts per 20 OIF (mean ± SEM): 39 ± 4 Fibroblasts per 20 OIF
[2]; checkerboard: upper compartment 7.0 × 10^-7 M, lower compartment 7.0 × 10^-7 M
  Fibroblasts per 20 OIF (mean ± SEM): 10 ± 1 Fibroblasts per 20 OIF
[2]
  fibroblast chemotaxis / migration (in words): does stimulate fibroblast chemotaxis and synthesis of collagen and hyaluronic acid; also recorded: induced migration of fibroblasts, monocytes and neutrophils in a dose dependent fashion; also recorded: induced primarily chemotaxis of fibroblasts
  chemotactic response of fibroblasts to peptide with fibronectin in upper chamber (in words): No such inhibition was seen
[2]; listed as VYYVGRKK
  fibroblast chemotaxis / migration (in words): induced fibroblast chemotaxis at all of the concentration tested

## YSKVLALYNQHNPGASAAPC (YSKVLALYNQHNPGASAAPC) [Peptide 337-356]
Guinea pig skin
  fibrogenic response / fibrosis in guinea pig skin (in words): induced a fibrinogenic response
[2]
  fibroblast chemotaxis / migration (in words): has the ability to induce fibroblast chemotaxis
  chemotactic response of fibroblasts to peptide with fibronectin in upper chamber (in words): No such inhibition was seen
